Tests used:
[1] = Study 202: treatment-emergent laboratory abnormalities (DAIDS grades; CPK, ALT, AST, bilirubin); type: in vivo; details: for Phosphate decreased, worst Grade 3, n subjects / Phosphate decreased, worst Grade 4, n subjects / Prothrombin time/INR increased, worst Grade 3, n subjects / Prothrombin time/INR increased, worst Grade 4, n subjects / ALT, worst Grade 1, n subjects / ALT, worst Grade 2, n subjects / ALT, worst Grade 3, n subjects / ALT, worst Grade 4, n subjects / AST, worst Grade 1, n subjects / AST, worst Grade 2, n subjects / AST, worst Grade 3, n subjects / AST, worst Grade 4, n subjects / Alanine aminotransferase (ALT) abnormality, any grade, n subjects / Any Grade 3 or Grade 4 laboratory abnormality, n subjects / Aspartate aminotransferase (AST) abnormality, any grade, n subjects / Aspartate aminotransferase (AST) increased (Grade 3 or 4), n subjects / Bilirubin abnormality, any grade, n subjects / Bilirubin, worst Grade 1, n subjects / Bilirubin, worst Grade 2, n subjects / Bilirubin, worst Grade 3, n subjects / Bilirubin, worst Grade 4, n subjects / CPK increased, worst Grade 3, n subjects / CPK increased, worst Grade 4, n subjects / Creatine phosphokinase (CPK) increased (Grade 3 or 4), n subjects / Fibrinogen decreased (Grade 3 or 4), n subjects / Fibrinogen decreased, worst Grade 3, n subjects / Fibrinogen decreased, worst Grade 4, n subjects / Hemoglobin decreased (Grade 3 or 4), n subjects / Hemoglobin decreased, worst Grade 3, n subjects / Hemoglobin decreased, worst Grade 4, n subjects / Neutrophils decreased (Grade 3 or 4), n subjects / Neutrophils decreased, worst Grade 3, n subjects / Neutrophils decreased, worst Grade 4, n subjects / Phosphate decreased (Grade 3 or 4), n subjects: through Week 48
Text: The number of subjects with graded treatment-emergent laboratory abnormalities in selected liver parameters of interest is shown in Table 34. No Grade 4 ALT or AST elevations were observed. Except for one Grade 3 AST elevation, all ALT and AST elevations were Grade 1 or Grade 2. […] All abnormalities in bilirubin were Grade 1 or Grade 2. […]

[2] = test system: RANTES-induced Ca2+ mobilization; test: RANTES-induced Ca2+ mobilization; type: cell-based
CCR4 = CCR4 (Homo sapiens, UniProt P51679); test: Inhibition of ligand binding to CCR4
Chain of CCR4 (P51679 whole entry): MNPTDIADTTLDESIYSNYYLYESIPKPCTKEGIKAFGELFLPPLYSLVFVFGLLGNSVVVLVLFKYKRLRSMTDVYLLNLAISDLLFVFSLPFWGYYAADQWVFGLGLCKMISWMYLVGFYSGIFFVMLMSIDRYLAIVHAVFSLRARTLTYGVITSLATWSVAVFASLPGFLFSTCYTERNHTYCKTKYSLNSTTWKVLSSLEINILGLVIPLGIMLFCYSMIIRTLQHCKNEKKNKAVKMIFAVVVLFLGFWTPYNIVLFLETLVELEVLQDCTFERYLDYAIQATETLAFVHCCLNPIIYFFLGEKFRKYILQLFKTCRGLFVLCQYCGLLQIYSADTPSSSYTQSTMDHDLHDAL

[3] = All CVC (N = 115), EFV (N = 28)

CCCCOCCOc1ccc(-c2ccc3c(c2)/C=C(/C(=O)Nc2ccc([S@@+]([O-])Cc4cncn4CCC)cc2)CCCN3CC(C)C)cc1 [CVC, (S)-8-[4-(2-Butoxyethoxy)phenyl]-1-isobutyl-N-(4-{[(1-propyl-1H-imidazol-5-yl)methyl]sulfinyl}phenyl)-1,2,3,4-tetrahydro-1-benzazocine-5-carboxamide]
Phosphate decreased, worst Grade 3, n subjects [1, 3]: 4 | Phosphate decreased, worst Grade 4, n subjects [1, 3]: 0 | Prothrombin time/INR increased, worst Grade 3, n subjects [1, 3]: 0 | Prothrombin time/INR increased, worst Grade 4, n subjects [1, 3]: 1 | Subjects with Grade 3 or 4 increases in CPK ([1]; CVC 100 mg): 3 subjects | Any graded (Grade 1-4) treatment-emergent laboratory abnormality, n subjects ([1]; CVC 100 mg (N = 58)): 51 (88%) | Laboratory abnormality, worst Grade 1, n subjects ([1]; CVC 100 mg (N = 58)): 21 (36%) | Laboratory abnormality, worst Grade 2, n subjects ([1]; CVC 100 mg (N = 58)): 23 (40%) | ALT, worst Grade 1, n subjects ([1]; CVC 100 mg (N = 58)): 4 | ALT, worst Grade 2, n subjects ([1]; CVC 100 mg (N = 58)): 3 | ALT, worst Grade 3, n subjects ([1]; CVC 100 mg (N = 58)): 0 | ALT, worst Grade 4, n subjects ([1]; CVC 100 mg (N = 58)): 0 | AST, worst Grade 1, n subjects ([1]; CVC 100 mg (N = 58)): 8 | AST, worst Grade 2, n subjects ([1]; CVC 100 mg (N = 58)): 2 | AST, worst Grade 3, n subjects ([1]; CVC 100 mg (N = 58)): 1 | AST, worst Grade 4, n subjects ([1]; CVC 100 mg (N = 58)): 0 | Alanine aminotransferase (ALT) abnormality, any grade, n subjects ([1]; CVC 100 mg (N = 58)): 7 | Any Grade 3 or Grade 4 laboratory abnormality, n subjects ([1]; CVC 100 mg (N = 58)): 7 | Aspartate aminotransferase (AST) abnormality, any grade, n subjects ([1]; CVC 100 mg (N = 58)): 11 | Aspartate aminotransferase (AST) increased (Grade 3 or 4), n subjects ([1]; CVC 100 mg (N = 58)): 1 | Bilirubin abnormality, any grade, n subjects ([1]; CVC 100 mg (N = 58)): 4 | Bilirubin, worst Grade 1, n subjects ([1]; CVC 100 mg (N = 58)): 1 | Bilirubin, worst Grade 2, n subjects ([1]; CVC 100 mg (N = 58)): 3 | Bilirubin, worst Grade 3, n subjects ([1]; CVC 100 mg (N = 58)): 0 | Bilirubin, worst Grade 4, n subjects ([1]; CVC 100 mg (N = 58)): 0 | CPK increased, worst Grade 3, n subjects ([1]; CVC 100 mg (N = 58)): 2 | CPK increased, worst Grade 4, n subjects ([1]; CVC 100 mg (N = 58)): 1 | Creatine phosphokinase (CPK) increased (Grade 3 or 4), n subjects ([1]; CVC 100 mg (N = 58)): 3 | Fibrinogen decreased (Grade 3 or 4), n subjects ([1]; CVC 100 mg (N = 58)): 0 | Fibrinogen decreased, worst Grade 3, n subjects ([1]; CVC 100 mg (N = 58)): 0 | Fibrinogen decreased, worst Grade 4, n subjects ([1]; CVC 100 mg (N = 58)): 0 | Hemoglobin decreased (Grade 3 or 4), n subjects ([1]; CVC 100 mg (N = 58)): 1 | Hemoglobin decreased, worst Grade 3, n subjects ([1]; CVC 100 mg (N = 58)): 0 | Hemoglobin decreased, worst Grade 4, n subjects ([1]; CVC 100 mg (N = 58)): 1 | Neutrophils decreased (Grade 3 or 4), n subjects ([1]; CVC 100 mg (N = 58)): 2 | Neutrophils decreased, worst Grade 3, n subjects ([1]; CVC 100 mg (N = 58)): 2 | Neutrophils decreased, worst Grade 4, n subjects ([1]; CVC 100 mg (N = 58)): 0 | Phosphate decreased (Grade 3 or 4), n subjects ([1]; CVC 100 mg (N = 58)): 2 | Phosphate decreased, worst Grade 3, n subjects ([1]; CVC 100 mg (N = 58)): 2 | Phosphate decreased, worst Grade 4, n subjects ([1]; CVC 100 mg (N = 58)): 0 | Prothrombin time/INR increased, worst Grade 3, n subjects ([1]; CVC 100 mg (N = 58)): 0 | Prothrombin time/INR increased, worst Grade 4, n subjects ([1]; CVC 100 mg (N = 58)): 1 | Subjects with Grade 3 or 4 increases in CPK ([1]; CVC 200 mg): 9 subjects | Any graded (Grade 1-4) treatment-emergent laboratory abnormality, n subjects ([1]; CVC 200 mg (N = 57)): 55 | Laboratory abnormality, worst Grade 1, n subjects ([1]; CVC 200 mg (N = 57)): 16 | Laboratory abnormality, worst Grade 2, n subjects ([1]; CVC 200 mg (N = 57)): 27 | Laboratory abnormality, worst Grade 3 (Any Grade 3 abnormality), n subjects ([1]; CVC 200 mg (N = 57)): 9 | Laboratory abnormality, worst Grade 4 (Any Grade 4 abnormality), n subjects ([1]; CVC 200 mg (N = 57)): 3 | ALT, worst Grade 1, n subjects ([1]; CVC 200 mg (N = 57)): 6 | ALT, worst Grade 2, n subjects ([1]; CVC 200 mg (N = 57)): 2 | ALT, worst Grade 3, n subjects ([1]; CVC 200 mg (N = 57)): 0 | ALT, worst Grade 4, n subjects ([1]; CVC 200 mg (N = 57)): 0 | AST, worst Grade 1, n subjects ([1]; CVC 200 mg (N = 57)): 6 | AST, worst Grade 2, n subjects ([1]; CVC 200 mg (N = 57)): 4 | AST, worst Grade 3, n subjects ([1]; CVC 200 mg (N = 57)): 0 | AST, worst Grade 4, n subjects ([1]; CVC 200 mg (N = 57)): 0 | Alanine aminotransferase (ALT) abnormality, any grade, n subjects ([1]; CVC 200 mg (N = 57)): 8 | Any Grade 3 or Grade 4 laboratory abnormality, n subjects ([1]; CVC 200 mg (N = 57)): 12 | Aspartate aminotransferase (AST) abnormality, any grade, n subjects ([1]; CVC 200 mg (N = 57)): 10 | Aspartate aminotransferase (AST) increased (Grade 3 or 4), n subjects ([1]; CVC 200 mg (N = 57)): 0 | Bilirubin abnormality, any grade, n subjects ([1]; CVC 200 mg (N = 57)): 3 | Bilirubin, worst Grade 1, n subjects ([1]; CVC 200 mg (N = 57)): 2 | Bilirubin, worst Grade 2, n subjects ([1]; CVC 200 mg (N = 57)): 1 | Bilirubin, worst Grade 3, n subjects ([1]; CVC 200 mg (N = 57)): 0 | Bilirubin, worst Grade 4, n subjects ([1]; CVC 200 mg (N = 57)): 0 | CPK increased, worst Grade 3, n subjects ([1]; CVC 200 mg (N = 57)): 6 | CPK increased, worst Grade 4, n subjects ([1]; CVC 200 mg (N = 57)): 3 | Creatine phosphokinase (CPK) increased (Grade 3 or 4), n subjects ([1]; CVC 200 mg (N = 57)): 9 | Fibrinogen decreased (Grade 3 or 4), n subjects ([1]; CVC 200 mg (N = 57)): 2 | Fibrinogen decreased, worst Grade 3, n subjects ([1]; CVC 200 mg (N = 57)): 2 | Fibrinogen decreased, worst Grade 4, n subjects ([1]; CVC 200 mg (N = 57)): 0 | Hemoglobin decreased (Grade 3 or 4), n subjects ([1]; CVC 200 mg (N = 57)): 0 | Hemoglobin decreased, worst Grade 3, n subjects ([1]; CVC 200 mg (N = 57)): 0 | Hemoglobin decreased, worst Grade 4, n subjects ([1]; CVC 200 mg (N = 57)): 0 | Neutrophils decreased (Grade 3 or 4), n subjects ([1]; CVC 200 mg (N = 57)): 0 | Neutrophils decreased, worst Grade 3, n subjects ([1]; CVC 200 mg (N = 57)): 0 | Neutrophils decreased, worst Grade 4, n subjects ([1]; CVC 200 mg (N = 57)): 0 | Phosphate decreased (Grade 3 or 4), n subjects ([1]; CVC 200 mg (N = 57)): 2 | Phosphate decreased, worst Grade 3, n subjects ([1]; CVC 200 mg (N = 57)): 2 | Phosphate decreased, worst Grade 4, n subjects ([1]; CVC 200 mg (N = 57)): 0 | Prothrombin time/INR increased, worst Grade 3, n subjects ([1]; CVC 200 mg (N = 57)): 0 | Prothrombin time/INR increased, worst Grade 4, n subjects ([1]; CVC 200 mg (N = 57)): 0 | Effect on RANTES-induced Ca2+ mobilization [2]: blocked | Inhibition of ligand binding to CCR4 (CCR4): only weakly inhibited

Reference: patent US20180110754A1, “CENICRIVIROC FOR THE TREATMENT OF FIBROSIS” (Tobira Therapeutics, Inc., priority 2015, published 2018)
